Experiments:
Assay type in all cases: in vivo, soybean
[1] = system: mutant line W20; assay: Test B postemergence cross resistance test; details: Glycine max, post-emergence; for percent crop injury at 16 g/ha: W20, 16 g/ha postemergence; for percent crop injury at 64 g/ha: W20, 64 g/ha postemergence; for percent crop injury at 2 g/ha: W20, 2 g/ha postemergence
Excerpt: (§1) In the second postemergence test, six true-breeding resistant mutant lines (W4, W17, W19, W20, W23, and W28) were compared to Williams 82 for cross resistance to a broad range of ALS inhibitors including eight sulfonylureas and three imidazolinones. Two seeds were planted in each 10 cm pot and allowed to grow to the second trifoliolate stage. Pots were not thinned back if both plants were at the proper stage. For each of 11 herbicides, two rates (Table VII) were selected based on previous data: the low rate was expected to cause significant injury (but not death) to Williams 82 and the high rate was expected to severely injure or kill Williams 82. All but a few line x rate treatments were replicated twice.
(§2) In both postemergence tests, plants were returned to the greenhouse after treatment and provided with ample light, moisture, and nutrients to support healthy plant growth. Two to three ratings per pot were recorded over a three-week period and averaged to obtain a single value for each pot For each herbicide, analysis of variance on injury ratings was performed separately. Fisher's least significant difference (LSD) was used to determine the significance of line mean differences at each herbicide rate using the 95% level of confidence.

[2] = system: Williams 82; assay: Test C preemergence (soil) sulfonylurea application; details: 19 days after treatment
Excerpt: (§3) W20, a line homozygous for a dominant sulfonylurea-resistance mutation, was compared to Williams 82 in terms of response to preemergence application of three sulfonylurea herbicides. The experimental unit consisted of a single 18 cm pot filled with soil (Sassafras loamy sand with 0.8% organic matter and pH 6.7) in which 6 seeds of a given soybean line were planted 2 cm deep. After planting, each pot was sprayed (using a conveyor belt spray apparatus to emulate field application) with one of 22 different treatments including a check sprayed with AGWT (90% acetone, 4% glycerol, 4% water, 2% Tween-20), and 21 different herbicide treatments using AGWT as a carrier. The herbicide treatments included 7 different concentrations (Table IX) each of three sulfonyl-ureas: Compound 5, Compound 4, and Compound 1. Each herbicide x line treatment was replicated three times. After herbicide treatment, pots were transferred to a greenhouse and arranged in a randomized complete block design. Nineteen days after treatment, each pot was rated visually for herbicide injury using the scale described previously. For each herbicide, analysis of variance on injury ratings was performed separately. Fisher's least significant difference (LSD) was used to determine the significance of line mean differences at each rate using the 95% level of confidence.

[3] = system: W20; assay: as above; details: 19 days after treatment
Excerpt: as §3

[4] = system: mutant line W4; assay: Test B postemergence cross resistance test; details: Glycine max, post-emergence; for % crop injury at 16 g/ha: W4, 16 g/ha postemergence; for % crop injury at 64 g/ha: W4, 64 g/ha postemergence; for % crop injury at 2 g/ha: W4, 2 g/ha postemergence
Excerpt: as §1
as §2, with “confidence. […]” for “confidence.”

[5] = system: mutant line W19; assay: Test B postemergence cross resistance test; details: Glycine max, post-emergence; for percent soybean crop injury at 16 g/ha: W19, 16 g/ha postemergence; for percent soybean crop injury at 64 g/ha: W19, 64 g/ha postemergence; for percent soybean crop injury at 2 g/ha: W19, 2 g/ha postemergence
Excerpt: as §1
as §2, with “confidence. […]” for “confidence.”

[6] = system: mutant line W28; assay: Test B postemergence cross resistance test; details: Glycine max, post-emergence; for mean % injury to soybean at 16 g/ha: W28, 16 g/ha postemergence; for mean % injury to soybean at 64 g/ha: W28, 64 g/ha postemergence; for mean % injury to soybean at 2 g/ha: W28, 2 g/ha postemergence
Excerpt: as §1
as §2, with “confidence. […]” for “confidence.”

[7] = system: Williams 82; assay: Test B postemergence cross resistance test; details: Glycine max, post-emergence
Excerpt: as §1
as §2, with “confidence. […]” for “confidence.”

[8] = system: mutant line W17; assay: Test B postemergence cross resistance test; details: Glycine max, post-emergence; for soybean crop injury (%) at 16 g/ha: W17, 16 g/ha postemergence; for soybean crop injury (%) at 64 g/ha: W17, 64 g/ha postemergence; for soybean crop injury (%) at 2 g/ha: W17, 2 g/ha postemergence
Excerpt: as §1
as §2, with “confidence. […]” for “confidence.”

[9] = system: mutant line W23; assay: Test B postemergence cross resistance test; details: Glycine max, post-emergence; for percent soybean injury at 16 g/ha: W23, 16 g/ha postemergence; for percent soybean injury at 64 g/ha: W23, 64 g/ha postemergence; for percent soybean injury at 2 g/ha: W23, 2 g/ha postemergence
Excerpt: as §1
as §2, with “confidence. […]” for “confidence.”

[10] = system: mutant W19; assay: Test A postemergence herbicide spray, greenhouse pots
Excerpt: (§4) In the first post-emergence test, two true-breeding resistant mutant lines, W19 and W20, were compared to previously isolated tolerant mutants and wild-type Williams 82. Eighteen pots (20 cm diameter) of each soybean line (2 seeds per pot) were planted using a standard sterile potting mix. When the seedlings reached the second trifoliolate stage, plants were thinned back to one plant per pot. Each pot was then sprayed with a specific herbicide treatment using a conveyor belt spray apparatus to emulate field application. The nine different herbicide treatments included one rate (8 g/ha) of Compound 1 and two rates (8 and 32 g/ha) each of four other sulfonylurea herbicides (Compounds 2,3,7 and 8) (see Table VI) using a factorial treatment design with 2 replications.
as §2, with “confidence. […]” for “confidence.”

[11] = system: mutant W20; assay: as above
Excerpt: as §4
as §2, with “confidence. […]” for “confidence.”

[12] = system: Williams 82; assay: as above
Excerpt: as §4
as §2, with “confidence. […]” for “confidence.”

[13] = system: Mutant 1-184A; assay: as above
Excerpt: as §4
as §2, with “confidence. […]” for “confidence.”

[14] = system: mutant W20; assay: Postemergence herbicide spray test of W4-4 (Table VII-A); details: two weeks after treatment
Protocol: (§5) To investigate this hypothesis, a postemergence herbicide spray test was conducted to compare the reaction of W4-4 to both W20 and wild-type Williams. The applicant was particularly interested in the resistance of W4-4 to herbicide treatments that were injurious to both Williams and W20 in a previous test (Table VII). […] Twenty-four plants each of W4-4, W20, and Williams were planted in separate 10 cm pots and allowed to grow to the second trifoliolate stage. Each pot constituted a single experimental unit receiving a single herbicide treatment. Herbicide treatments (Table VIIA) were applied as described for the first postemergence test and were replicated twice. Control plants were sprayed with the spray carrier solution only (water with 0.25% X77 surfactant). At two weeks after treatment, each plant was rated for % herbicide injury as described in Table VIII. Analysis of variance on injury ratings was performed separately for each herbicide to calculate treatment means and standard errors. Fisher's least significant difference (LSD) was used to determine the significance of line means differences at each herbicide rate using the 95% level of confidence. […]

[15] = system: Williams 82; assay: as above; details: two weeks after treatment
Protocol: as §5

[16] = system: Mutant W4-4; assay: as above; details: two weeks after treatment
Protocol: as §5

SMILES: CCOC(=O)c1ccccc1S(=O)(=O)NC(=O)Nc1nc(Cl)cc(OC)n1 [Compound 5, Ethyl 2[[[[(4-chloro-6-methoxy-2-pyrimidinyl)amino]carbonyl]amino]sulfonyl]benzoate]
- percent crop injury at 16 g/ha [1]: 0%
- percent crop injury at 64 g/ha [1]: 0%
- % Injury ([2]; WM 82, 1 g/ha preemergence): 0%
- % Injury ([2]; WM 82, 3 g/ha preemergence): 0%
- % Injury ([2]; WM 82, 10 g/ha preemergence): 0%
- % Injury ([2]; WM 82, 30 g/ha preemergence): 15%
- % Injury ([2]; WM 82, 100 g/ha preemergence): 47%
- % Injury ([2]; WM 82, 300 g/ha preemergence): 68%
- % Injury ([2]; WM 82, 1000 g/ha preemergence): 92%
- % Injury ([3]; W20, 1 g/ha preemergence): 0%
- % Injury ([3]; W20, 3 g/ha preemergence): 0%
- % Injury ([3]; W20, 10 g/ha preemergence): 0%
- % Injury ([3]; W20, 30 g/ha preemergence): 3%
- % Injury ([3]; W20, 100 g/ha preemergence): 10%
- % Injury ([3]; W20, 300 g/ha preemergence): 15%
- % Injury ([3]; W20, 1000 g/ha preemergence): 35%
- % crop injury at 16 g/ha [4]: 6%
- % crop injury at 64 g/ha [4]: 0%
- percent soybean crop injury at 16 g/ha [5]: 0%
- percent soybean crop injury at 64 g/ha [5]: 20%
- mean % injury to soybean at 16 g/ha [6]: 0%
- mean % injury to soybean at 64 g/ha [6]: 0%
- pest or weed control at 16 g/ha ([7]; read-out: mean % injury): 40%
- pest or weed control at 64 g/ha ([7]; read-out: mean % injury): 58%
- soybean crop injury (%) at 16 g/ha [8]: 0%
- soybean crop injury (%) at 64 g/ha [8]: 0%
- percent soybean injury at 16 g/ha [9]: 0%
- percent soybean injury at 64 g/ha [9]: 10%

SMILES: COC(=O)c1ccccc1S(=O)(=O)NC(=O)N(C)c1nc(C)nc(OC)n1 [Compound 3, Methyl 2-[[[[N-(4-methoxy-6-methyl-1,3,5-triazin-2-yl)N-methylamino]carbonyl]amino]sulfonyl]benzoate]
- percent crop injury at 2 g/ha [1]: 0%
- mean % injury ([10]; W19, 8 g/ha postemergence): 14%
- mean % injury ([10]; W19, 32 g/ha postemergence): 63%
- mean % injury ([11]; W20, 8 g/ha postemergence): 8%
- mean % injury ([11]; W20, 32 g/ha postemergence): 63%
- mean % injury ([12]; WM 82, 8 g/ha postemergence): 92%
- mean % injury ([12]; WM 82, 32 g/ha postemergence): 95%
- mean % injury ([13]; 8 g/ha postemergence): 90%
- mean % injury ([13]; 32 g/ha postemergence): 91%
- % crop injury at 2 g/ha [4]: 3%
- % crop injury at 8 g/ha ([4]; W4, 8 g/ha postemergence): 18%
- percent soybean crop injury at 2 g/ha [5]: 5%
- percent soybean crop injury at 8 g/ha ([5]; W19, 8 g/ha postemergence): 29%
- mean % injury to soybean at 2 g/ha [6]: 8%
- mean % injury to soybean at 8 g/ha ([6]; W28, 8 g/ha postemergence): 21%
- soybean crop injury at 2 g/ha ([7]; Wm 82, 2 g/ha postemergence): 60%
- soybean crop injury at 8 g/ha ([7]; Wm 82, 8 g/ha postemergence): 94%
- soybean crop injury (%) at 2 g/ha [8]: 0%
- soybean crop injury (%) at 8 g/ha ([8]; W17, 8 g/ha postemergence): 25%
- percent soybean injury at 2 g/ha [9]: 0%
- percent soybean injury at 8 g/ha ([9]; W23, 8 g/ha postemergence): 45%

SMILES: COc1cc(OC)nc(NC(=O)NS(=O)(=O)c2ncccc2C(=O)N(C)C)n1 [Compound 6, 2-[[[[(4,6-dimethoxy-2-pyrimidinyl)amino]carbonyl]amino]sulfonyl]N,N-dimethyl-3-pyridinecarboxamide]
- percent crop injury at 16 g/ha [1]: 3%
- percent crop injury at 64 g/ha [1]: 38%
- mean % injury ([14]; W20, 64 g/ha postemergence): 10%
- mean % injury ([14]; W20, 125 g/ha postemergence): 28%
- mean % injury ([15]; WM82, 64 g/ha postemergence): 60%
- mean % injury ([15]; WM82, 125 g/ha postemergence): 68%
- mean % injury ([16]; W4-4, 64 g/ha postemergence): 0%
- mean % injury ([16]; W4-4, 125 g/ha postemergence): 8%
- % crop injury at 16 g/ha [4]: 4%
- % crop injury at 64 g/ha [4]: 43%
- percent soybean crop injury at 16 g/ha [5]: 8%
- percent soybean crop injury at 64 g/ha [5]: 48%
- mean % injury to soybean at 16 g/ha [6]: 0%
- mean % injury to soybean at 64 g/ha [6]: 45%
- pest or weed control at 16 g/ha ([7]; read-out: mean % injury): 25%
- pest or weed control at 64 g/ha ([7]; read-out: mean % injury): 66%
- soybean crop injury (%) at 16 g/ha [8]: 0%
- soybean crop injury (%) at 64 g/ha [8]: 40%
- percent soybean injury at 16 g/ha [9]: 5%
- percent soybean injury at 64 g/ha [9]: 54%

SMILES: COC(=O)c1ccccc1S(=O)(=O)NC(=O)Nc1nc(C)cc(C)n1 [Compound 4, Methyl 2-[[[[(4,6-dimethyl-2-pyrimidinyl)amino]carbonyl]amino]sulfonyl]benzoate]
- percent crop injury at 0.5 g/ha ([1]; W20, 0.5 g/ha postemergence): 0%
- percent crop injury at 2 g/ha [1]: 6%
- % Injury ([2]; WM 82, 0.3 g/ha preemergence): 33%
- % Injury ([2]; WM 82, 1 g/ha preemergence): 55%
- % Injury ([2]; WM 82, 3 g/ha preemergence): 88%
- % Injury ([2]; WM 82, 10 g/ha preemergence): 97%
- % Injury ([2]; WM 82, 30 g/ha preemergence): 98%
- % Injury ([2]; WM 82, 100 g/ha preemergence): 100%
- % Injury ([2]; WM 82, 300 g/ha preemergence): 100%
- % Injury ([3]; W20, 0.3 g/ha preemergence): 0%
- % Injury ([3]; W20, 1 g/ha preemergence): 0%
- % Injury ([3]; W20, 3 g/ha preemergence): 0%
- % Injury ([3]; W20, 10 g/ha preemergence): 17%
- % Injury ([3]; W20, 30 g/ha preemergence): 68%
- % Injury ([3]; W20, 100 g/ha preemergence): 90%
- % Injury ([3]; W20, 300 g/ha preemergence): 95%
- % crop injury at 0.5 g/ha ([4]; W4, 0.5 g/ha postemergence): 10%
- % crop injury at 2 g/ha [4]: 8%
- percent soybean crop injury at 0.5 g/ha ([5]; W19, 0.5 g/ha postemergence): 3%
- percent soybean crop injury at 2 g/ha [5]: 18%
- mean % injury to soybean at 0.5 g/ha ([6]; W28, 0.5 g/ha postemergence): 0%
- mean % injury to soybean at 2 g/ha [6]: 18%
- pest or weed control at 0.5 g/ha ([7]; read-out: mean % injury): 58%
- pest or weed control at 2 g/ha ([7]; read-out: mean % injury): 95%
- soybean crop injury (%) at 0.5 g/ha ([8]; W17, 0.5 g/ha postemergence): 3%
- soybean crop injury (%) at 2 g/ha [8]: 0%
- percent soybean injury at 0.5 g/ha ([9]; W23, 0.5 g/ha postemergence): 8%
- percent soybean injury at 2 g/ha [9]: 11%

From patent US5084082A, “Soybean plants with dominant selectable trait for herbicide resistance” (priority 1990, dated 1992)
